Results published in patent US5770617A, “Terbenzimidazoles useful as antifungal agents” (Rutgers, The State University of New Jersey, priority 1997, dated 1998).

What was measured:
[1] = target: T1, calf thymus topoisomerase I (Bos taurus, UniProt F1MN93); assay: Topoisomerase I-mediated DNA cleavage assay (calf thymus enzyme); type: biochemical; conditions: for Topo I-mediated DNA cleavage (REC, Relative Effective Concentration): concentration relative to Hoechst 33342 (arbitrarily 1) producing the same cleavage on plasmid DNA, calf thymus topoisomerase I
T1 construct: DNA topoisomerase I was purified from calf thymus gland as reported previously; from tissue; host or cells: calf thymus gland
T1 sequence (F1MN93 1-767): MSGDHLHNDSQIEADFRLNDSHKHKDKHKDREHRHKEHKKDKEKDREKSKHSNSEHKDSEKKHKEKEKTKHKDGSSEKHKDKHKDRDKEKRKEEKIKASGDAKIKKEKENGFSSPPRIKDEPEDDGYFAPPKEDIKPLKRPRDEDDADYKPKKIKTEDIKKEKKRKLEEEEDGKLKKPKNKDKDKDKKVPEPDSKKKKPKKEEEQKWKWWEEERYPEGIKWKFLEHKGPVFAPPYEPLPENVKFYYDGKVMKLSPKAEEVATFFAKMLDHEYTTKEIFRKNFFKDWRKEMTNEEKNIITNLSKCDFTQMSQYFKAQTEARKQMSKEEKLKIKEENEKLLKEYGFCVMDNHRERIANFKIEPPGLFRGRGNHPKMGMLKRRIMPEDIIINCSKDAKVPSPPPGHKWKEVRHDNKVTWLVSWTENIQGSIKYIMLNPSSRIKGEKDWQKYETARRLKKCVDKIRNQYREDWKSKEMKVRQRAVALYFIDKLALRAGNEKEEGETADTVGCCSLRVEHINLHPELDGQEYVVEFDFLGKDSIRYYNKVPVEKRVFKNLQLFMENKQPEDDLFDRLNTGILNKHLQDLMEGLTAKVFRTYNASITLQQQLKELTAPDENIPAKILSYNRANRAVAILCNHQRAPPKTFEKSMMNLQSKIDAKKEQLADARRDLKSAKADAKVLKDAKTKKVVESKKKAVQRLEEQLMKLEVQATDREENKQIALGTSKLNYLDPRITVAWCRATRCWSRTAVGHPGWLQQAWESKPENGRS
Source text: A. Topoisomerase I-Mediated DNA Cleavage Assays
DNA topoisomerase I was purified from calf thymus gland as reported previously by B. D. Halligan et al., J. Biol. Chem., 260, 2475 (1985).
Plasmid YEpG was also purified by the alkali lysis method followed by phenol deproteination and CsCl/ethidium isopycnic centrifugation as described by T. Maniatis et al., Molecular Cloning, A Laboratory Manual, Cold Spring Harbor Labs, N.Y. (1982) at pages 149-185. The end-labeling of the plasmid was accomplished as previously described by L. F. Liu et al., J. Biol. Chem., 258, 15365 (1983). The cleavage assays were performed as previously reported by A. Y. Chen et al., Cancer Res., 53, 1332 (1993). Human topoisomerase I was isolated as a recombinant fusion protein using a T7 expression system.

[2] = system: KBV-1 cells (multidrug-resistant variant, overexpress MDR1); conditions: cited from earlier work
[3] = target: T2, Aspergillus topoisomerase I (Aspergillus nidulans, UniProt Q5BGS7); assay: Covalent transfer of 32P radioactivity from DNA to topoisomerase I (phosphate-transfer); type: biochemical; conditions: for phosphate transfer to 105 kDa Aspergillus topoisomerase I: Ho33342 1 mM
T2 construct: about 105 kDa by phosphate transfer
T2 sequence (Q5BGS7 1-871): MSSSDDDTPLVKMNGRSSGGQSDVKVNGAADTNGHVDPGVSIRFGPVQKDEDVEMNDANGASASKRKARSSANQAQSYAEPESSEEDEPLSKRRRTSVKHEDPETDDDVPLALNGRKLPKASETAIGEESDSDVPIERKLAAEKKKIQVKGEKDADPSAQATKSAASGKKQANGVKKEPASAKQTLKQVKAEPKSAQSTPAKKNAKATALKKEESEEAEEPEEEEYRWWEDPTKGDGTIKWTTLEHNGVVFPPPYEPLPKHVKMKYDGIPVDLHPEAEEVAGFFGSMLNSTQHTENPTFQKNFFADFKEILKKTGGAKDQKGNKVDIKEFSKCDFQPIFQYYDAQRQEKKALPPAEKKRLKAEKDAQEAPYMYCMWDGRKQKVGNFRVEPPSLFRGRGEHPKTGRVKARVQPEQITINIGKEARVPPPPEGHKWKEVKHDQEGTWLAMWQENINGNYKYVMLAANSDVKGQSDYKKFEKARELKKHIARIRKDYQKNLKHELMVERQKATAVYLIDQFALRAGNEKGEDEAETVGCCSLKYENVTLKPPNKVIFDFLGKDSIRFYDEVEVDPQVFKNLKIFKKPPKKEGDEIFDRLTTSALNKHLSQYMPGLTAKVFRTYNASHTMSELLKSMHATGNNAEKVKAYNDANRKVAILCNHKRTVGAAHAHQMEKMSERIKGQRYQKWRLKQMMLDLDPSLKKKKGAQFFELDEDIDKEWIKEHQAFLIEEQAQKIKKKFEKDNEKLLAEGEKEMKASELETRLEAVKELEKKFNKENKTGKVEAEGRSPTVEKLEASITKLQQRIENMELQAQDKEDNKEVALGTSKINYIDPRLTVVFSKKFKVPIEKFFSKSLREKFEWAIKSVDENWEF
Experimental: This phosphate-transfer method was a modification of the procedure described previously by T. C. Rowe et al., J. Biol. Chem., 259, 9177 (1984). Briefly, a 100-μl reaction mixture containing 10 mM Tris-HCl, pH 7.5, 1 mM MgCl2, 0.5 mM dithiothreitol, 30 μg/ml of bovine serum albumin, drug (camptothecin or Hoechst 33342) at an indicated concentration, 50 ng of YEpG DNA labeled with ^32 PdATP by the random primer method (Random Primed Labeling Kit, Boehringer Mannheim), and 300 units of human or Aspergillus topoisomerase I, was incubated at 37° C. for 10 minutes. The reactions were terminated by adding NaOH to 0.18M and EDTA to 2.5 mM. After neutralizing the reaction with a precalibrated amount of Tris-HCl, 9 μl of 0.1M CaCl2 and 7.5 μl of 20% SDS were added, and the volume was adjusted to 300 μl with H2 O.
Five units of Bal31 nuclease (New England, BioLabs) were added, and the sample was digested for 1 hour at 25° C. The reaction was terminated by extraction with 1 volume of phenol. The phenol phase was saved and back-extracted once with an equal volume of 10 mM Tris-HCl, pH 8.0, 1 mM EDTA. The protein-oligonucleotide complexes were then precipitated from the phenol phase by adding 10 volumes of ice-cold acetone and placing on ice for 10 minutes. The pellet was dissolved in SDS sample buffer and analyzed by SDS-PAGE. Gel drying and autoradiography were done as described (Hsiang et al., J. Biol. Chem., 260, 14873 (1985)).

[4] = system: CPT-K5 (camptothecin-resistant variant of RPMI 8402); conditions: CPT-K5 versus RPMI 8402; reported by A. Y. Chen et al. 1993; cited from earlier work

N#Cc1ccc2[nH]c(-c3ccc4[nH]c(-c5ccc6[nH]cnc6c5)nc4c3)nc2c1 [Compound 11, 5-Cyano-2-[2'-(benzimidazol-5"-yl)benzimidazol-5'-yl]benzimidazole]
Topo I-mediated DNA cleavage (REC, Relative Effective Concentration) [1]: 1

c1ccc(-c2ccc3[nH]c(-c4ccc5[nH]c(-c6ccc7[nH]cnc7c6)nc5c4)nc3c2)cc1 [Compound 13, 5-Phenyl-2-[2'(benzimidazol-5"-yl)benzimidazol-5'-yl]benzimidazole]
potency as topoisomerase I inhibitor compared with Hoechst 33342, in words [1]: approximately one-half as potent
Topo I-mediated DNA cleavage (REC, Relative Effective Concentration) [1]: 2

CCOc1ccc(-c2nc3cc(-c4nc5cc(N6CCN(C)CC6)ccc5[nH]4)ccc3[nH]2)cc1 [Hoechst 33342, 2'-(4-ethoxyphenyl)-5-(4-methyl-1-piperazinyl)-2,5'-bi-1H-benzimidazole]
fold less cytotoxic to KB V-1 cells than to KB 3-1 ([2]; background, previously reported): approximately 130 fold
difference of IC50 for KB 3-1 as compared to KB V-1 cells ([2]; reported by A. Y. Chen et al. 1994): approximately two-orders of magnitude
phosphate transfer to 105 kDa Aspergillus topoisomerase I [3]: stimulated the phosphate transfer
phosphate transfer at higher concentrations ([3]; higher concentrations of Ho33342): progressively inhibited

CC[C@@]1(O)C(=O)OCc2c1cc1n(c2=O)Cc2cc3ccccc3nc2-1 [camptothecin]
phosphate transfer to 105 kDa Aspergillus topoisomerase I [3]: stimulated the phosphate transfer
relative resistance (ratio of IC50 of resistant versus drug sensitive cell line) [4]: 2,500 fold
